Calls of active or inactive are those of the source. The rule behind the calls is not given here.
Tests used:
[1] = biological target: T1, Polyunsaturated fatty acid 5-lipoxygenase (Homo sapiens) (UniProt P09917); assay: Inhibition of 5-LOX in human Neutrophil at 10 uM preincubated with compound for 15 mins followed by A23187 addition measured after 10 mins by RP-HPLC analysis relative to control; format: cell-based; settings: time 25.0 min
T1 sequence (whole entry): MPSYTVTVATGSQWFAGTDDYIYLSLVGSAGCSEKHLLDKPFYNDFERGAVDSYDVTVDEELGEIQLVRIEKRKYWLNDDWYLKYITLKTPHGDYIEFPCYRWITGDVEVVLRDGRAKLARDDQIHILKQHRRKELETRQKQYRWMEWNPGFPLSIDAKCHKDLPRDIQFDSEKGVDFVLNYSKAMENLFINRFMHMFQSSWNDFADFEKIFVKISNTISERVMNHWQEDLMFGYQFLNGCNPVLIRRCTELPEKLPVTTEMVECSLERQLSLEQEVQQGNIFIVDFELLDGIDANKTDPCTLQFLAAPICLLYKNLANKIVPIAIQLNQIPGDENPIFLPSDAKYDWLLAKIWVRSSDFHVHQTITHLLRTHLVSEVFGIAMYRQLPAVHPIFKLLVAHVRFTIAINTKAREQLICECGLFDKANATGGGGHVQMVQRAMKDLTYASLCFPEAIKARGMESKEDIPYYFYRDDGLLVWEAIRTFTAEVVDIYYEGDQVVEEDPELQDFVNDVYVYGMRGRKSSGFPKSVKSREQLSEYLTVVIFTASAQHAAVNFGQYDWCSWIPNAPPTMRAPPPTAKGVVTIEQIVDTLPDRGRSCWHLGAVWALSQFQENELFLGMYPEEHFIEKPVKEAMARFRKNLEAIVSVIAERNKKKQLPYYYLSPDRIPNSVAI

[2] = biological target: T2, Prostaglandin E synthase (Homo sapiens) (UniProt O14684); assay: Inhibition of human mPGES-1 at 10 uM relative to control
T2 sequence (whole entry): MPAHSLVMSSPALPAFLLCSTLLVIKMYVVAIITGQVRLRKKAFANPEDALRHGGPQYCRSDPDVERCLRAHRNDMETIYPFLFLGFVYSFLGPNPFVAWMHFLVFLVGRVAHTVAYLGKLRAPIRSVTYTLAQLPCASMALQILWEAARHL

[3] = biological target: T3, Bifunctional epoxide hydrolase 2 (Homo sapiens) (UniProt P34913); assay: Inhibition of human sEH at 10 uM relative to control
T3 sequence (whole entry): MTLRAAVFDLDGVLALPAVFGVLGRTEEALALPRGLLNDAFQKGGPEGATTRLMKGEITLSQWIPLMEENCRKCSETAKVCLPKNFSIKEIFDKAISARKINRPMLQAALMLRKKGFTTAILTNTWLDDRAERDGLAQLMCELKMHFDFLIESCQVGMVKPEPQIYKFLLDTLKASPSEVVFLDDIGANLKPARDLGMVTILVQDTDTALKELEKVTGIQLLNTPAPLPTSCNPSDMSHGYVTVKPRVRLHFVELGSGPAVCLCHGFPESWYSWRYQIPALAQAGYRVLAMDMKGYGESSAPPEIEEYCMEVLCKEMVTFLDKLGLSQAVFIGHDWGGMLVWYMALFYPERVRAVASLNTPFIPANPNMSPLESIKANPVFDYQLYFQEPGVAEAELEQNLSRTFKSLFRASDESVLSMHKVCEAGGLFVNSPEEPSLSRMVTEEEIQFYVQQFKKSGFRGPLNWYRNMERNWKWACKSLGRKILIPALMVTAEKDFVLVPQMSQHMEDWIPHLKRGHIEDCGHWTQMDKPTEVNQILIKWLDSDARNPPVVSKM

[4] = biological target: T1, Polyunsaturated fatty acid 5-lipoxygenase (Homo sapiens); assay: (§1) Inhibition of 5-LOX in human Neutrophil assessed as enzyme remaining activity at 10 uM using arachidonic acid as substrate preincubated with compound for 15 mins followed by substrate and A23187 addition measured after 10 mins by RP-HPLC analysis relative to control; format: cell-based; settings: time 25.0 min
[5] = biological target: T1, Polyunsaturated fatty acid 5-lipoxygenase (Homo sapiens); assay: as §1, with “of human recombinant” for “of”, “5-LOX expressed” for “5-LOX”, “Escherichia coli BL21(DE3)” for “human Neutrophil”, “CaCl2” for “A23187”; settings: time 25.0 min
[6] = biological target: T3, Bifunctional epoxide hydrolase 2 (Homo sapiens); assay: Inhibition of human sEH assessed as enzyme remaining activity at 10 uM relative to control
[7] = biological target: T1, Polyunsaturated fatty acid 5-lipoxygenase (Homo sapiens); assay: Inhibition of 5-LOX in human Neutrophil assessed as enzyme remaining activity at 10 uM preincubated with compound for 15 mins followed by A23187 addition measured after 10 mins by RP-HPLC analysis relative to control; format: cell-based; settings: time 25.0 min
[8] = biological target: T2, Prostaglandin E synthase (Homo sapiens); assay: Inhibition of human mPGES-1 assessed as enzyme remaining activity at 10 uM relative to control

Row | SMILES | inhibition [1] | inhibition [2] | inhibition [3] [%] | Activity [4] [%] | Activity [5] [%] | Activity [6] [%] | Activity [7] [%] | Activity [8] [%]
1 | N=c1[nH]nc2nc(CC(=O)c3ccc4ccccc4c3)c(=O)[nH]n12 | inactive | inactive | > 35 |  |  |  |  | 
2 | Cc1cc(=O)oc(C)c1C(=O)Oc1ccc2ccccc2c1 | inactive | inactive | > 35 | 79.5 | 91.1 | 75.7 | 87.9 | 88.2
3 | O=C1C(=O)C(CCc2ccccc2)C(=O)/C1=C/c1ccccc1 (stereo not given) | inactive | > 50% | > 35 | 80.6 | 110 | 101 | 105 | 27.4
4 | Cc1ccn(C(=O)C2=Cc3ccccc3OC2)c(=N)c1 | inactive | inactive | > 35 |  |  | 121 |  | 84.3
5 | O=C1CCC(CCc2nc3ccccc3[nH]2)(c2ccccc2)C(=O)N1 (stereo not given) | inactive | inactive | > 35 | 110 | 106 | 98.7 | 102 | 92.7
6 | O=C1C/C(=C/c2cccc(OCc3ccccc3)c2)C(=O)N1 | inactive | inactive | > 35 | 67.1 | 94.4 | 128 | 112 | 83.1
7 | CC1CCc2c(c(CC3CC(=O)NC(=O)C3)nn2-c2ccccc2)C1 (stereo not given) | inactive | inactive | > 35 | 101 | 91.7 | 86.2 | 95.6 | 89.6
8 | N=c1c2c(ncn1Cc1ccccc1)CCN(Cc1ccccc1)C2 | inactive | inactive | > 35 | 80.1 | 96.2 | 91.6 | 82.3 | 93.9
9 | O=C(c1ccc2ccccc2n1)C(O)c1ccc2ccccc2n1 (stereo not given) | inactive | inactive | > 35 | 99.6 | 99.8 |  | 111 | 
10 | NS(=O)(=O)c1ccc(NCc2cnc3ccccc3c2)cc1 | inactive | inactive | > 35 | 95.3 | 96.5 | 112 | 90.6 | 86.3
11 | O=C(/C=C/c1ccccc1)NCCC1(O)C(=O)Nc2ccccc21 (stereo not given) | inactive | inactive | > 35 |  |  | 88.2 |  | 98.2
12 | O=C(c1nc2ccc(Cl)cc2nc1O)C(O)c1ccc2c(c1)OCO2 (stereo not given) | inactive | inactive | > 35 | 90.7 | 81.2 | 93.8 | 101 | 89.4
13 | Cc1ccc(Nc2nnc(-c3ccc4c(c3)OCO4)o2)c(C)c1 | inactive | < 40% | > 35 | 69.8 | 14 | 90.6 | 106 | 57.9
14 | O=C1N=C(Nc2nc3ccccc3[nH]2)OC1c1ccccc1 (stereo not given) | inactive | inactive | > 35 | 102 | 94.4 | 99.9 | 121 | 83.6
15 | Cn1c(=O)c2nc(CCCc3nc4ccccc4[nH]3)[nH]c2n(C)c1=O | inactive | inactive | > 35 | 98.3 | 98.5 | 92.7 | 113 | 90.9
16 | O=C(O)c1cnc2cc(OCCc3ccc(F)cc3)ccc2c1O | inactive | inactive | > 35 | 87.6 | 66.9 | 72.5 | 89.1 | 75.9
17 | N=C(N)/N=C(/C=C/c1ccccc1)CC1OC(=O)c2ccccc21 (stereo not given) | inactive | > 50% | > 35 | 68 | 58.3 | 92.9 | 85.5 | 40.9

Other lines, results leading:

Row | inhibition [1] | inhibition [2] | inhibition [3] [%] | Activity [4] [%] | Activity [5] [%] | Activity [6] [%] | Activity [7] [%] | Activity [8] [%] | SMILES
18 | inactive | < 40% | > 35 | 60.1 | 67.6 | 108 | 47.6 | 52.6 | O=C(/C=C/c1ccccc1)CCc1c(O)c2ccccc2oc1=O
19 | inactive | < 40% | > 35 | 94.9 | 105 | 79.7 | 81.6 | 59 | CC(=O)c1cccc2cc(CC(=O)c3ccccc3)c(=O)oc12
20 | inactive | inactive | 58 | 99.2 | 90.4 | 41.5 | 100 | 92.5 | O=C1c2ccccc2C(=O)N1CCc1nc(-c2ccccc2)c[nH]1
21 | inactive | inactive | > 35 | 103 | 110 | 87.4 | 105 | 86.5 | O=C(O)c1ccccc1C(=O)OC1CCc2ccccc2C1 (stereo not given)
22 | inactive | inactive | > 35 | 102 | 107 | 81 | 94.2 | 96.3 | CC(=O)NC(CC(=O)Nc1cccc2c1Cc1ccccc1-2)C(=O)O (stereo not given)
23 | inactive | inactive | > 35 | 92.4 | 96.4 | 91.4 | 97 | 88.1 | O=C(NCc1ccco1)Nc1cccc(-c2ccccc2)c1
24 | inactive | inactive | > 35 | 106 | 115 | 196 | 104 | 93.4 | CC(=O)c1cccc(NC(=O)Oc2ccc3c(C)cc(=O)oc3c2)c1
25 | inactive | inactive | > 35 | 88.2 | 105 | 111 | 93.1 | 94.2 | O=C1Nc2ccccc2/C1=N/NS(=O)(=O)c1ccc(C(=O)O)cc1
26 | inactive | > 50% | > 35 | 91.8 | 97.2 | 102 | 72.8 | 47.6 | CC(=O)c1ccc(NCN2C(=O)c3ccccc3C2=O)cc1
27 | inactive | inactive | > 35 |  |  | 147 |  | 98.3 | O=C(O)c1cc(O)c2cc(Cc3ccccc3)ccc2n1

Source: ChEMBL document CHEMBL5528002, “Identification of selective 5-LOX and FLAP inhibitors as novel anti-inflammatory agents by ligand-based virtual screening” (Eur J Med Chem, 2024)
